Data on one substance can be found in US6864356B2, “Sixteen amino acid of the antineoplastic protein (ANUP) as a pharmacologically active anti-tumor agent” (priority 1997, dated 2005).

Assay [1] concerns human breast tumor cell line (MDA 231). In words: in vitro antitumor (tumor killing) assay, neutral red dye, 96 well plates. Format: cell-based. The settings on record: MDA 231 cells. The protocol:
The antitumor activity of the peptide (P16) was assayed against the human breast tumor cell line (MDA 231) and its activity was compared to the in vitro antitumor effect of the “pure” protein (ANUP).
The assay for the pharmacological antitumor activities were performed as follows utilizing 96 well plates—
20,300-30,000 human breast tumor cells in L-15 medium (200 μl) containing 2.5% fetal calf serum and 100 μg gentamycin per ml (complete medium) were incubated at 37° in air for 120 hours; after this incubation period 50 μl of serially diluted P16 and ANUP were added to each well. […] The solutions were diluted in complete medium containing 0.05% SDS to a concentration of 350 μg per ml.
Dilution plates were prepared as follows:
100 μl of complete medium were added to each well and 50 μl of diluted P16 and ANUP were added to each well in row A thus 1.3 dilution was accomplished; 50 μl were serially diluted in the 100 μl of medium in rows B through H. Thus the range of concentrations were from 6 μg to 2 mg when 50 μl each dilution series were added to the 200 μl of the complete medium containing the MDA cells. The plates were incubated for an additional 96-120 hours. The medium was poured off and after a 90-minute incubation with 50 μl neutral red dye (0.5 ml neutral red (0.25% ethanol (0.6 ml) diluted 5.5 saline-0.16 mm HCl) the cells were washed twice with PBS (phosphate buffer saline) at room temperature. The concentration of living cells (since only living cells absorb the dye) was determined after adding 100 μl lysing buffer (50% ethanol in 0.05 m NaH2 PO4) the concentration of neutral red released in each well was determined using a Dynetech plate reader set at […]. A unit of activity was defined as the concentration of ANUP and P16 for 50% killing.

The test system of the next assay is tumor cells. To be noted: electron microscopy (Struve et al. 1990); cited from earlier work.

Non-standard residues stand in square brackets, D forms with d. No end group written: not given here. pGlu = O=C1CC[C@@H](C(=O)O)N1

“synthetic hexadeca peptide (16 L-amino acids), partial N-terminal sequence of ANUP: Pyroglu-Leu-Lys-Cys-Tyr-Thr-Cys-Lys-Glu-Pro-Met-Thr-Ser-Ala-Ala-Cys (SEQ ID NO: 1) ([pGlu]LKCYTCKEPMTSAAC; cysteine pairing not given here) [P16]”: the “Fraction of the Activity relative to ANUP” value in assay [1] (+ 0.005% SDS) is given as 0.04; in assay [1] (+ 0.02% SDS), 0.50; in assay [1] (+ 0.05% SDS), 0.50; in assay [1] (no SDS), “± no Activity”. Moreover, in assay [1] (absence of SDS), the “antitumor activity in the absence of SDS” value was “neither the peptide nor the protein showed any antitumor activity”. Besides, the “activity compared to the protein (ANUP), molar basis” value in assay [1] (in vitro) was “about 50%”. In addition, the IC50 in assay [1] (medium containing SDS, 96-120 hours incubation, read-out: 50% end point (concentration for 50% killing)) amounted to 22 nM. For the same substance, the “weight of peptide required relative to weight of protein (ANUP) for equal activity” value in assay [1] (weight basis) is given as “one tenth”. Further, the “effect on tumor cells by electron microscopy” value in the assay on tumor cells is “complete degradation of the cells”.
